Measured values from patent publication EP4745137A1 (Gluetacs Therapeutics (Shanghai) Co., Ltd., priority 2023, dated 2025).
Like-named read-outs stand apart in the source and are kept apart here.

Columns and labels:
[1] = target: T1, human Cereblon WT GST-tagged protein (Homo sapiens, UniProt Q96SW2); assay: CRBN-binding affinity by HTRF (CEREBLON BINDING kit); conditions: HTRF inhibitory activity, CEREBLON BINDING kit; read-out: HTRF IC50
T1 construct: purchased CISBIO 64BDCRBNPEH

CAL-62 = assay: Tumor cell proliferation inhibition (CellTiter-Meiluncell Luminescent Cell Viability Assay), CAL-62; conditions: Homo sapiens, CAL-62, 96 h, read-out: inhibitory activity (IC50, nM) against tumor cells proliferation, CAL-62
Jurkat = assay: Tumor cell proliferation inhibition (CellTiter-Meiluncell Luminescent Cell Viability Assay), Jurkat; conditions: Homo sapiens, 96 h, read-out: inhibitory activity (IC50, nM) against tumor cells proliferation, Jurkat
[2] = system: Human breast cancer cells (MDA-MB-231); assay: Tumor cell proliferation inhibition (CellTiter-Meiluncell Luminescent Cell Viability Assay), MDA-MB-231; conditions: MDA-MB-231, 96 h, read-out: inhibitory activity (IC50, nM) against tumor cells proliferation, MDA-MB-231
Protocol: (§1) The tumor cells used herein were cultured in a cell culture medium listed in table 2 at 37°C in an incubator with 5% CO2. Prior to experimentation, all cell lines used were correctly identified by STR profiling, and tested negative for mycoplasma contamination using a mycoplasma detection kit through routine screenings.
(§2) On the following day, the test compounds of the present disclosure were subjected to serial dilution. […] Subsequently, 0.5 µL of the test compound dilution was transferred into the 96-well plate containing the cells, with each well containing 100 µL of cell culture medium. […] Into the 96-well plate, the diluted test compounds and corresponding detection reagents were added, resulting in final test compound concentrations of 500 nM and 10 nM, respectively. The experimental procedure is described below using the diluted 2 µM test compound as an example.
(§3) After the cells were treated with the compounds of the present disclosure for a specified period (the treatment durations were shown in Table 3), the cell viability assay reagent was added to the culture medium according to the kit's instructions to determine cell viability. […] All controls were treated using the same procedure as the compounds of the present disclosure. The growth inhibition curves for the compounds of the present disclosure were plotted using Prism GraphPad software, and the IC50 values were calculated therefrom.

CK1α = target: T2, CK1α (Homo sapiens, UniProt P48729+Q96SW2); assay: Western-blot assay of substrate protein degradation in hPBMCs, CK1α; type: cell-based; conditions: 24 hours of compound treatment
T2 construct: endogenous in cells; host or cells: hPBMCs (Milecell Biotechnologies)

IKZF2 = target: T3, IKZF2 (Homo sapiens, UniProt Q96SW2+Q9UKS7); assay: Western-blot assay of substrate protein degradation in hPBMCs, IKZF2; type: cell-based; conditions: 24 hours of compound treatment
T3 construct: endogenous in cells; host or cells: hPBMCs (Milecell Biotechnologies)
T3 sequence (Q9UKS7 whole entry): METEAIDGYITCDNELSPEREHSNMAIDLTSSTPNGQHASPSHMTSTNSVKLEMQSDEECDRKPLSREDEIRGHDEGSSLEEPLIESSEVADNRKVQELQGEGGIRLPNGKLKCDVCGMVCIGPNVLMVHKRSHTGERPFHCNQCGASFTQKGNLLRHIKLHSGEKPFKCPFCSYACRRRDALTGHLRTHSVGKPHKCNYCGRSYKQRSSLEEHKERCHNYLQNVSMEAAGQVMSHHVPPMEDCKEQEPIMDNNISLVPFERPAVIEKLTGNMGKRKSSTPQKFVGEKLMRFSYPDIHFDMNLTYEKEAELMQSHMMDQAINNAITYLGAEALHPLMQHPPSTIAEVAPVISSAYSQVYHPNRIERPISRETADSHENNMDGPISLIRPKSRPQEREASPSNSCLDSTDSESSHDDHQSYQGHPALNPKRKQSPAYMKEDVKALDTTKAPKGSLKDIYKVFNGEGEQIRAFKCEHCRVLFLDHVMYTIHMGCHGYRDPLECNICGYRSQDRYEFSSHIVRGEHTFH
T3 sequence (Q96SW2 whole entry): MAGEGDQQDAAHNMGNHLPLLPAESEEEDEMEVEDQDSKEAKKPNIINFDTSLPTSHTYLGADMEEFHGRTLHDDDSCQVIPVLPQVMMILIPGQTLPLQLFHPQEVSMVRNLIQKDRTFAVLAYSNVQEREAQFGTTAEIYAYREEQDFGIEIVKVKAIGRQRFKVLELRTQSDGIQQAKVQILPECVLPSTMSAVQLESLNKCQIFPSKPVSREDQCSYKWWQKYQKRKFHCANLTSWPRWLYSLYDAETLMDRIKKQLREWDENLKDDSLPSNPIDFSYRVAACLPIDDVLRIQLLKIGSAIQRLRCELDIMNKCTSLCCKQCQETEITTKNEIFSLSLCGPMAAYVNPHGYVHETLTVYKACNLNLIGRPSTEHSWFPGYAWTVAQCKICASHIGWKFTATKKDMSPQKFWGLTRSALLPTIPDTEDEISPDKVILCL
T3 sequence (Q16531 whole entry partner): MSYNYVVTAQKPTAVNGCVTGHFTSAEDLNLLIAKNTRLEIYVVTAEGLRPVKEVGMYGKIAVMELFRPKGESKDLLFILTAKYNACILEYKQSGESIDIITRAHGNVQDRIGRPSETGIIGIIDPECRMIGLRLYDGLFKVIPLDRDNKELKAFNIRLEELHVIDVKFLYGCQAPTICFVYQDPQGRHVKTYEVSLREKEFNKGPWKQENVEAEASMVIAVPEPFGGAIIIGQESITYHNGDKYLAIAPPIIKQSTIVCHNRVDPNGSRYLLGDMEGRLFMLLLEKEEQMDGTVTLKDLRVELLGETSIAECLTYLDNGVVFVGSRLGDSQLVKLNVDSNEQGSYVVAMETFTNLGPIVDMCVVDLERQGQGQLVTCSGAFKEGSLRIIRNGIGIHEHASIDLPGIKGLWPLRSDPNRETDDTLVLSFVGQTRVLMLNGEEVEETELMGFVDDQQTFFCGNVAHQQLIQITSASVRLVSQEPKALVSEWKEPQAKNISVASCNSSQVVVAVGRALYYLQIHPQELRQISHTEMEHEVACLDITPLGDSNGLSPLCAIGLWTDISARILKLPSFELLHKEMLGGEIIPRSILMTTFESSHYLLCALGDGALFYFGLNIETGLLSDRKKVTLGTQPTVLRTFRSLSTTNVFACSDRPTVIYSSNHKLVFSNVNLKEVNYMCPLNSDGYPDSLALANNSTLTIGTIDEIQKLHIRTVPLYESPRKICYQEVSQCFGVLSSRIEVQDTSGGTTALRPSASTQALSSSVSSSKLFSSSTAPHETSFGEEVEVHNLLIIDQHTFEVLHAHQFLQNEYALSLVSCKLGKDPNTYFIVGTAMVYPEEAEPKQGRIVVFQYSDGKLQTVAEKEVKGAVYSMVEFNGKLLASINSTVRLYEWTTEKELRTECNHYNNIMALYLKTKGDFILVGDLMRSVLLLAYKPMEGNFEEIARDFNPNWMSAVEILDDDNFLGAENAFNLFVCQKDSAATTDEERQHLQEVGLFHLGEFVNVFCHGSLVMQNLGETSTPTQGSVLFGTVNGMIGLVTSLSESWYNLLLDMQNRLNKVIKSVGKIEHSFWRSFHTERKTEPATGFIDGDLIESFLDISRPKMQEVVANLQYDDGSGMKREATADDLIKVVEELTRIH

CCRF-CEM = assay: Tumor cell proliferation inhibition (CellTiter-Meiluncell Luminescent Cell Viability Assay), CCRF-CEM; conditions: Homo sapiens, 96 h, read-out: inhibitory activity (IC50, nM) against tumor cells proliferation, CCRF-CEM
Protocol: as §1, §2, §3

SR = assay: Tumor cell proliferation inhibition (CellTiter-Meiluncell Luminescent Cell Viability Assay), SR; conditions: Homo sapiens, 96 h, read-out: inhibitory activity (IC50, nM) against tumor cells proliferation, SR
NCI-H1975 = assay: Tumor cell proliferation inhibition (CellTiter-Meiluncell Luminescent Cell Viability Assay), NCI-H1975; conditions: Homo sapiens, NCI-H1975, 96 h, read-out: inhibitory activity (IC50, nM) against tumor cells proliferation, H1975
IKZF3 = target: T4, IKZF3 (Homo sapiens, UniProt Q96SW2+Q9UKT9); assay: Western-blot assay of substrate protein degradation in hPBMCs, IKZF3; type: cell-based; conditions: 24 hours of compound treatment
T4 construct: endogenous in cells; host or cells: hPBMCs (Milecell Biotechnologies)
T4 sequence (Q9UKT9 whole entry): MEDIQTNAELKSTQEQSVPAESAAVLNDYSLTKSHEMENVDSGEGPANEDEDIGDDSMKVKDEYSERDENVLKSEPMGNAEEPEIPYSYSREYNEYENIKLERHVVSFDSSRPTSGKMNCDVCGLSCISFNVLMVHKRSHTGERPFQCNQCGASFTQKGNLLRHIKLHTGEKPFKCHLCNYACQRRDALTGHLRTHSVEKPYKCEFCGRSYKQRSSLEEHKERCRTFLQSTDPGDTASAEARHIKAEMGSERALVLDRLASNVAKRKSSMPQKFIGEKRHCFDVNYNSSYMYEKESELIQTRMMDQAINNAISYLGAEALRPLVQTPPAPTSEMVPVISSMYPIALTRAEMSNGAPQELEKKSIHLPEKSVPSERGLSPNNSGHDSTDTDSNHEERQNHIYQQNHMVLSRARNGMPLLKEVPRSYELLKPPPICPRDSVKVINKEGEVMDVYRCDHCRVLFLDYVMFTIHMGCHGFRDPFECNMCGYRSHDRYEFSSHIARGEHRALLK
T4 sequence (Q96SW2 whole entry): as the sequence (Q96SW2 whole entry) above
T4 sequence (Q16531 whole entry partner): as the sequence (Q16531 whole entry partner) above

WEE1 = target: T5, WEE1 (Homo sapiens, UniProt P30291+Q96SW2); assay: Western-blot assay of substrate protein degradation in hPBMCs, WEE1; type: cell-based; conditions: 24 hours of compound treatment
T5 construct: endogenous in cells; host or cells: hPBMCs (Milecell Biotechnologies)
T5 sequence (P30291 whole entry): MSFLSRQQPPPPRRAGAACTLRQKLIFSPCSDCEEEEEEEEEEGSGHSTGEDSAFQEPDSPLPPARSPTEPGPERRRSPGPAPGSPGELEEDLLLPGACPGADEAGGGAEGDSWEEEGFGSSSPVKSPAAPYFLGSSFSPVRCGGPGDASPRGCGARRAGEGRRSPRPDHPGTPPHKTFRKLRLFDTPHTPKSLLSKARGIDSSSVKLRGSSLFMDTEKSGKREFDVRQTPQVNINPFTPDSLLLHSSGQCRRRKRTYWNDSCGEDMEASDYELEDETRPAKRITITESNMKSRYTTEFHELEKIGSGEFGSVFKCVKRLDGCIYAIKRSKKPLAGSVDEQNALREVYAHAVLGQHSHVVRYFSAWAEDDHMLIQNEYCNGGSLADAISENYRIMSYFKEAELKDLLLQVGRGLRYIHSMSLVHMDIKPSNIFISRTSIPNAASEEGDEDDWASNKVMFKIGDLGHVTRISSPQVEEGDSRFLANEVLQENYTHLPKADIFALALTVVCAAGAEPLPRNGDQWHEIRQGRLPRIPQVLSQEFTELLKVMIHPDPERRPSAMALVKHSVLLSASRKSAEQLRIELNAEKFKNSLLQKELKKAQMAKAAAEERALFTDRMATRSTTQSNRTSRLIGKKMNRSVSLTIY
T5 sequence (Q96SW2 whole entry): as the sequence (Q96SW2 whole entry) above
T5 sequence (Q16531 whole entry partner): as the sequence (Q16531 whole entry partner) above

GSPT1 = target: T6, GSPT1 (Homo sapiens, UniProt P15170+Q96SW2); assay: Western-blot assay of substrate protein degradation in hPBMCs, GSPT1; type: cell-based; conditions: 24 hours of compound treatment
T6 construct: endogenous in cells; host or cells: hPBMCs (Milecell Biotechnologies)
T6 sequence (P15170 whole entry): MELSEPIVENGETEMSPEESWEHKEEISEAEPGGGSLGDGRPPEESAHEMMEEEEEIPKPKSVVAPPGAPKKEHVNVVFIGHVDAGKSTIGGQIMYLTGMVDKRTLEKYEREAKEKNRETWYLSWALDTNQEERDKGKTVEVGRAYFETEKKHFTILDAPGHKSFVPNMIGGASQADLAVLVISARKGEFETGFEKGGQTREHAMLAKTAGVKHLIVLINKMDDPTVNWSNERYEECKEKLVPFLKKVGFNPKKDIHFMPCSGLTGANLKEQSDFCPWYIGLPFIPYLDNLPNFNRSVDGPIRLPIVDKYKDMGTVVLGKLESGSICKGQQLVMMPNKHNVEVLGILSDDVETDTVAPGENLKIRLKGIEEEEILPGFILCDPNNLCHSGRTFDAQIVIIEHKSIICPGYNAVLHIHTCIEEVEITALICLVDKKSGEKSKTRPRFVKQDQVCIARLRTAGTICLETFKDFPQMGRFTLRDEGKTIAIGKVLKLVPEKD
T6 sequence (Q96SW2 whole entry): as the sequence (Q96SW2 whole entry) above
T6 sequence (Q16531 whole entry partner): as the sequence (Q16531 whole entry partner) above

Vcap = assay: Tumor cell proliferation inhibition (CellTiter-Meiluncell Luminescent Cell Viability Assay), Vcap; conditions: Homo sapiens, 96 h, read-out: inhibitory activity (IC50, nM) against tumor cells proliferation, Vcap
[3] = system: Human acute T lymphocytic leukemia cells (Molt-4); assay: Tumor cell proliferation inhibition (CellTiter-Meiluncell Luminescent Cell Viability Assay), Molt-4; conditions: MOLT-4, 96 h, read-out: inhibitory activity (IC50, nM) against tumor cells proliferation, Molt 4
MM.1R = assay: Tumor cell proliferation inhibition (CellTiter-Meiluncell Luminescent Cell Viability Assay), MM.1R; conditions: Homo sapiens, 96 h, read-out: inhibitory activity (IC50, nM) against tumor cells proliferation, MM.1R
Protocol: as §1, §2, §3

IKZF1 = target: T7, IKZF1 (Homo sapiens, UniProt Q13422+Q96SW2); assay: Western-blot assay of substrate protein degradation in hPBMCs, IKZF1; type: cell-based; conditions: 24 hours of compound treatment
T7 construct: endogenous in cells; host or cells: hPBMCs (Milecell Biotechnologies)
T7 sequence (Q13422 whole entry): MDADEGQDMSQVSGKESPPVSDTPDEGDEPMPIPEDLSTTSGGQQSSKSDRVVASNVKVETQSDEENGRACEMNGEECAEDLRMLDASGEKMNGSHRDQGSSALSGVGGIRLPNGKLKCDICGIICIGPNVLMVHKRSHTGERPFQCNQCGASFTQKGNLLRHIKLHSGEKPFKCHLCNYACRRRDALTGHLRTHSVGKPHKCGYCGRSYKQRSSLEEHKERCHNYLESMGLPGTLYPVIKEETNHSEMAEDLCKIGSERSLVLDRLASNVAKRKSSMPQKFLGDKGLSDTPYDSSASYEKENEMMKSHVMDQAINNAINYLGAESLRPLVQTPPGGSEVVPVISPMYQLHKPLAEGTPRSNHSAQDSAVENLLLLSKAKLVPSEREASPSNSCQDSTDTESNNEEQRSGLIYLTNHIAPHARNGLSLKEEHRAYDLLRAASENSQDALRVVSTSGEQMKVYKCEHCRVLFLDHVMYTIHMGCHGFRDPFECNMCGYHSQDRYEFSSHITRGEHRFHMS
T7 sequence (Q96SW2 whole entry): as the sequence (Q96SW2 whole entry) above
T7 sequence (Q16531 whole entry partner): as the sequence (Q16531 whole entry partner) above

MGC803 = assay: Tumor cell proliferation inhibition (CellTiter-Meiluncell Luminescent Cell Viability Assay), MGC803; conditions: Homo sapiens, MGC-803, 96 h, read-out: inhibitory activity (IC50, nM) against tumor cells proliferation, MGC803
Protocol: as §1
On the following day, the test compounds of the present disclosure were subjected to serial dilution. […] Subsequently, 0.5 µL of the test compound dilution was transferred into the 96-well plate containing the cells, with each well containing 100 µL of cell culture medium. […] Into the 96-well plate, the diluted test compounds and corresponding detection reagents were added, resulting in final test compound concentrations of 500 nM and 10 nM, respectively.
as §3

SW620 = assay: Tumor cell proliferation inhibition (CellTiter-Meiluncell Luminescent Cell Viability Assay), SW620; conditions: Homo sapiens, SW-620, 96 h, read-out: inhibitory activity (IC50, nM) against tumor cells proliferation, SW620
Protocol: as §1, §2, §3

MV-4-11 = assay: Tumor cell proliferation inhibition (CellTiter-Meiluncell Luminescent Cell Viability Assay), MV-4-11
[4] = compounds tested at 50 nM and 500 nM (concentration of the table not stated)
[5] = 50 nM and 500 nM tested (concentration behind the class not stated)
[6] = Homo sapiens, MV4-11, read-out: inhibitory activity (IC50, nM) against tumor cells proliferation, MV-4-11

T1 sequence (Q96SW2 whole entry): as the sequence (Q96SW2 whole entry) above

Row | Structure (SMILES) | IC50 [1] [nM] | IC50 (CAL-62) [nM] | IC50 (Jurkat) [nM] | IC50 [2] [nM] | CK1a substrate protein remaining % (CK1α; [4]) | IKZF2 substrate protein remaining % (IKZF2; [4]) | IC50 (CCRF-CEM) [nM] | IC50 (SR) [nM] | IC50 (NCI-H1975) [nM] | IKZF3 substrate protein remaining % (IKZF3; [4]) | Weel substrate protein remaining % (WEE1; [4]) | GSPT1 substrate protein remaining % (GSPT1; [4]) | IC50 (Vcap) [nM] | IC50 [3] [nM] | IC50 (MM.1R) [nM] | IKZF 1 substrate protein remaining % (IKZF1; [4]) | IC50 (MGC803) [nM] | IC50 (SW620) [nM] | IKZF2 substrate protein remaining % (IKZF2; [5]) | IC50 (MV-4-11; [6]) [nM] | further results
1 | O=C1CCC(N2Cc3cc(CN4CC=C(c5cccs5)CC4)ccc3C2=O)C(=O)N1 (stereo not drawn) [GT-04494, 3-(1-oxo-5-((4-(thiophen-2-yl)-3,6-dihydropyridin-1(2H)-yl)methyl)isoindolin-2-yl)piperidine-2,6-dione] | < 500 | 1 to 5 | < 1 | 10 to 50 | A (0% ≤ substrate protein remaining % ≤ 80%) | A (0% ≤ substrate protein remaining % ≤ 80%) | 1 to 5 | 5 to 10 | 10 to 50 | B (80%< substrate protein remaining %≤ 100%) | A (0% ≤ substrate protein remaining % ≤ 80%) | A (0% ≤ substrate protein remaining % ≤ 80%) | 1 to 5 | 1 to 5 | < 1 | B (80%< substrate protein remaining %≤ 100%) | 10 to 50 | 5 to 10 |  |  | 
2 | O=C1CCC(N2Cc3cc(CN4CCN(c5cc(F)cc(F)c5)CC4)ccc3C2=O)C(=O)N1 (stereo not drawn) [GT-04496, 3-(5-((4-(3,5-difluorophenyl)piperazin-1-yl)methyl)-1-oxoisoindolin-2-yl)piperidine-2,6-dione] | 500 to 1000 | 10 to 50 | 5 to 10 | 100 to 500 | A (0% ≤ substrate protein remaining % ≤ 80%) | A (0% ≤ substrate protein remaining % ≤ 80%) | 5 to 10 | 100 to 500 | 100 to 500 | B (80%< substrate protein remaining %≤ 100%) | B (80%< substrate protein remaining %≤ 100%) | A (0% ≤ substrate protein remaining % ≤ 80%) | 10 to 50 | 5 to 10 | 10 to 50 | B (80%< substrate protein remaining %≤ 100%) | 100 to 500 | 100 to 500 |  |  | 
3 | O=C1CCC(N2Cc3cc(CN4CCN(c5cccc(Cl)n5)CC4)ccc3C2=O)C(=O)N1 (stereo not drawn) [GT-04497, 3-(5-((4-(6-chloropyridin-2-yl)piperazin-1-yl)methyl)-1-oxoisoindolin-2-yl)piperidine-2,6-dione] | 500 to 1000 | 1 to 5 | 1 to 5 | 10 to 50 | A (0% ≤ substrate protein remaining % ≤ 80%) | A (0% ≤ substrate protein remaining % ≤ 80%) | 1 to 5 | 10 to 50 | 10 to 50 | A (0% ≤ substrate protein remaining % ≤ 80%) | A (0% ≤ substrate protein remaining % ≤ 80%) | A (0% ≤ substrate protein remaining % ≤ 80%) | 5 to 10 | 1 to 5 | 1 to 5 | A (0% ≤ substrate protein remaining % ≤ 80%) | 50 to 100 | 10 to 50 |  |  | 
4 | Cc1cscc1C1=CCN(Cc2ccc3c(c2)CN(C2CCC(=O)NC2=O)C3=O)CC1 (stereo not drawn) [GT-04503, 3-(5-((4-(4-methylthiophen-3-yl)-3,6-dihydropyridin-1(2H)-yl)methyl)-1-oxoisoindolin-2-yl)piperidine-2,6-dione] | < 500 | < 1 | < 1 | 1 to 5 | A (0% ≤ substrate protein remaining % ≤ 80%) | A (0% ≤ substrate protein remaining % ≤ 80%) | < 1 | 1 to 5 | 1 to 5 | A (0% ≤ substrate protein remaining % ≤ 80%) | A (0% ≤ substrate protein remaining % ≤ 80%) | A (0% ≤ substrate protein remaining % ≤ 80%) | 1 to 5 | < 1 | 1 to 5 | A (0% ≤ substrate protein remaining % ≤ 80%) | 5 to 10 | 1 to 5 |  |  | 
5 | O=C1CCC(N2C(=O)c3ccc(CN4CCN(c5nccc(Cl)c5Br)CC4)cc3C2=O)C(=O)N1 (stereo not drawn) [GT-06601, 5-((4-(3-bromo-4-chloropyridin-2-yl)piperazin-1-yl)methyl)-2-(2,6-dioxopiperidin-3-yl)isoindoline-1,3-dione] |  |  |  |  |  |  |  |  |  |  |  |  |  |  |  |  |  |  | B (80%< substrate protein remaining %≤ 100%) | 100 to 500 | CK1a substrate protein remaining % (CK1α; [5]): B (80%< substrate protein remaining %≤ 100%); IKZF3 substrate protein remaining % (IKZF3; [5]): B (80%< substrate protein remaining %≤ 100%); Weel substrate protein remaining % (WEE1; [5]): B (80%< substrate protein remaining %≤ 100%); GSPT1 substrate protein remaining % (GSPT1; [5]): A (0% ≤ substrate protein remaining % ≤ 80%); IKZF 1 substrate protein remaining % (IKZF1; [5]): B (80%< substrate protein remaining %≤ 100%)
6 | O=C1CCC(N2C(=O)c3ccc(CN4CC=C(c5ccnc(F)c5F)CC4)cc3C2=O)C(=O)N1 (stereo not drawn) [GT-06614, 5-((2',3'-difluoro-3,6-dihydro-[4,4'-bipyridin]-1(2H)-yl)methyl)-2-(2,6-dioxopiperidin-3-yl)isoindoline-1,3-dione] |  |  |  |  |  |  |  |  |  |  |  |  |  |  |  |  |  |  | B (80%< substrate protein remaining %≤ 100%) | 10 to 50 | CK1a substrate protein remaining % (CK1α; [5]): A (0% ≤ substrate protein remaining % ≤ 80%); IKZF3 substrate protein remaining % (IKZF3; [5]): B (80%< substrate protein remaining %≤ 100%); Weel substrate protein remaining % (WEE1; [5]): B (80%< substrate protein remaining %≤ 100%); GSPT1 substrate protein remaining % (GSPT1; [5]): A (0% ≤ substrate protein remaining % ≤ 80%); IKZF 1 substrate protein remaining % (IKZF1; [5]): B (80%< substrate protein remaining %≤ 100%)
7 | O=C1CCC(N2C(=O)c3ccc(CN4CCN(c5ccnc(Cl)c5F)CC4)cc3C2=O)C(=O)N1 (stereo not drawn) [GT-06620, 5-((4-(2-chloro-3-fluoropyridin-4-yl)piperazin-1-yl)methyl)-2-(2,6-dioxopiperidin-3-yl)isoindoline-1,3-dione] |  |  |  |  |  |  |  |  |  |  |  |  |  |  |  |  |  |  | B (80%< substrate protein remaining %≤ 100%) | 100 to 500 | CK1a substrate protein remaining % (CK1α; [5]): B (80%< substrate protein remaining %≤ 100%); IKZF3 substrate protein remaining % (IKZF3; [5]): A (0% ≤ substrate protein remaining % ≤ 80%); Weel substrate protein remaining % (WEE1; [5]): B (80%< substrate protein remaining %≤ 100%); GSPT1 substrate protein remaining % (GSPT1; [5]): A (0% ≤ substrate protein remaining % ≤ 80%); IKZF 1 substrate protein remaining % (IKZF1; [5]): B (80%< substrate protein remaining %≤ 100%)
8 | O=C1CCC(N2C(=O)c3ccc(CN4CCN(c5ncnc(Cl)c5Cl)CC4)cc3C2=O)C(=O)N1 (stereo not drawn) [GT-06623, 5-((4-(5,6-dichloropyrimidin-4-yl)piperazin-1-yl)methyl)-2-(2,6-dioxopiperidin-3-yl)isoindoline-1,3-dione] |  |  |  |  |  |  |  |  |  |  |  |  |  |  |  |  |  |  |  | 100 to 500 | 
9 | O=C1CCC(N2C(=O)c3ccc(CN4CCN(c5ncncn5)CC4)cc3C2=O)C(=O)N1 (stereo not drawn) [GT-06626, 5-((4-(1,3,5-triazin-2-yl)piperazin-1-yl)methyl)-2-(2,6-dioxopiperidin-3-yl)isoindoline-1,3-dione] |  |  |  |  |  |  |  |  |  |  |  |  |  |  |  |  |  |  | B (80%< substrate protein remaining %≤ 100%) |  | IC50 (MV-4-11; read-out: inhibitory activity (IC50, nM) against tumor cells proliferation, MV-4-11): 50 to 100 nM; IKZF3 substrate protein remaining % (IKZF3; [5]): B (80%< substrate protein remaining %≤ 100%); GSPT1 substrate protein remaining % (GSPT1; [5]): A (0% ≤ substrate protein remaining % ≤ 80%); IKZF 1 substrate protein remaining % (IKZF1; [5]): B (80%< substrate protein remaining %≤ 100%)
